Experimental findings from patent publication US20250186597A1, “TARGETED IMMUNE ACTIVATION WITH IL-18 IMMUNOCYTOKINES” (BRIGHT PEAK THERAPEUTICS AG, priority 2023, published 2025) are described below.

In assay [1] the test system is PD-1 positive (transduced) KG-1 cells. The experiment in a line: IFN gamma secretion assay in PD-1 transduced KG-1 cells (Example 11). It counts as cell-based, human. The procedure:
The KG-1 cell line was used to generate a PD-1 expressing cell line and furthermore, to measure IFNγ release upon incubation with IL-18 variants and corresponding IL-18 immunocytokines.
PD-1 expressing cell line generation: Briefly, KG-1 cells were transduced using lentiviral particles carrying the human PD-1 gene (PDCD1 NM_005018; Origene, CAT #: RC210364L3V) at a MOI (Multiplicity of Infection) of 30. Spinfection was performed at 1260 g during 90 min at 37° C. in the presence of 5 μg/ml of Polybrene and 10 mM of HEPES in complete culture media (RPMI, 10% FBS, 1% L-Glutamine). Five days after transduction, puromycin at a final concentration of 1 ug/ml was added to select for PD-1 positive cells. For culture maintenance, puromycin concentration was decreased to 0.5 μg/ml. Stable and homogenous expression of PD-1 was verified by surface staining (BD Pharmingen, #557860).
IFNγ release was assessed in PD-1 positive (transduced) KG-1 cells, as well as in the parental PD-1 negative cells. 0.5×10^5 cells were seeded into a 96-well U-bottom plate in culture media (RPMI, 10% FBS, 1% L-Glutamine) and stimulated with IL-18 variants/ICs for 20-24 h. The test items were diluted to 100 nM in culture medium, followed by 7 10-fold serial dilutions. The lowest concentration assessed was […]. After incubation, IFNγ release was measured using the LEGENDplex custom human mix and match KIT (Biolegend LEGENDplex™ Human IFN-γ Capture Bead B5, 13X #740942, LEGENDplex™ HU Essential Immune Response Panel Detection Abs, #740931, LEGENDplex™ Buffer Set A #740368). To this end, cell culture supernatant was collected and diluted 1:1 with Assay Buffer. Fluorescence measurements were done with a Quanteon Flow Cytometer from Acea Biosciences. For analysis, MFI values (median fluorescence intensity) were exported and plotted against concentrations used. The EC50 values (half maximal effective concentration) were calculated based on a variable slope and four parameter analysis using GraphPad PRISM software version 9.

The subject of assay [2] is parental PD-1negative NK-92 cells. The experiment in a line: IL-18BP mediated inhibition of IFN gamma secretion in parental PD-1 negative NK-92 cells (Example 18). It counts as cell-based, human. Particulars: IL-18BP-mediated inhibition of IFNγ secretion, IL-18 analyte 1 nM. The procedure: To characterize the resistance of anti-PD1-IL18 immunocytokines (IC) on PD-1 positive cells, the NK-92 cell line was used to generate a PD-1 expressing cell line and furthermore, to measure the inhibition of IFN[…] release upon incubation with IL-18 variants and ICs in the presence of increasing quantities of human IL-18BP.
On the day of experiment, parental PD-1^negative and PD-1^positive transduced cells were harvested and washed with PBS 1× and resuspended in medium (w/o IL-2) containing 1 ng/ml of recombinant human Interleukin-12 (SinoBiologicals, Cat #CT011-H08H). After counting, cells were seeded at 100 000 cells/well in a 384 well culture plate and incubated at 37° C./5% CO2. When indicated, cells were preincubated with anti-PD-1 antibody LZM-009 at 17 uM during 30 min at 37° C. […]
After 16-20 h incubation at 37° C./5% CO2, 5 μl of supernatant were carefully transferred to a 384 microwell OptiIPlate (Perkin Elmer; Cat #6007270) and Interferon-gamma (IFNγ) levels measured using the Human IFNγ AlphaLISA Assay Kit (Perkin Elmer, Cat #AL217C). […] AlphaLISA signal was then measured on an Enspire plate reader (Perkin Elmer) using 680 and 615 nm as excitation and emission wavelengths respectively. Half maximal inhibitory concentration (IC50) was calculated based on a variable slope, four parameter analysis using GraphPad PRISM software.

“SEQ ID NO: 1: Native sequence of human IL-18 (bioactive form) [reference compound]”: the concentration for a half-maximal effect (EC50) (as a rule, the midpoint of the concentration-response curve) in assay [1] (IFNγ secretion, PD-1 transduced KG-1) amounted to 0.297 nM. Also, the “PD-1^neg/PD-1^pos EC50 ratio” value in assay [1] (KG-1 cells) is given as 1.298. Further, the half-maximal inhibitory concentration (IC50) (usually the concentration at which inhibition is half-maximal) in assay [2] was determined as 2.97 nM.
